Laboratory results published in patent US4921887A, “Thiazole compounds and pharmaceutical composition comprising the same” (Fujisawa Pharmaceutical Company, Ltd., priority 1987, dated 1990).
Converted amounts (≈) assume the structure as drawn.

Tests used:
[1] = system: SRS-A synthesis or release from peritoneal exudate cells (5-lipoxygenase); assay: Anti-SRS-A activity (5-lipoxygenase inhibitory activity); format: cell-based, SD rats; conditions: A23187 (1 μg/ml)-stimulated rat peritoneal exudate cells, indomethacin 10 μg/ml; SRS-A by contractility of isolated guinea pig ileum; read-out: Inhibitory Concentration IC50
Procedure: Anti-SRS-A activity (5-lipoxygenase inhibitory activity)
Peritoneal exudate cells were collected from glycogen-injected SD rats and adjusted to 1×10^7 cells/ml with Tyrode's solution. One milliliter of the cell suspension was incubated with indomethacin (10 μg/ml) and each varied concentration of the test compound for 10 minutes and, then, further incubated with Ca^++ -ionophore (A23187, 1 μg/ml) for 10 minutes. The supernatant was collected by centrifugation and the SRS-A (slow-reacting substance of anaphylaxis) activity was determined in terms of contractility of the isolated guinea pig ileum in the presence of mepyramine, atropine and methysergide.
The results were expressed in terms of the 50% inhibitory concentration to SRS-A synthesis or release from peritoneal exudate cells.

[2] = system: anaphylactic asthma in guinea pigs; assay: Antagonistic action on anaphylactic asthma in guinea pigs; format: in vivo, guinea pigs (male Hartley-strain); conditions: Cavia porcellus; oral, 30 minutes prior to egg-white albumin aerosol; survival not less than 2 hours after antigen spraying; read-out: Prophylactic Effect ED50
Procedure: Antagonistic action on anaphylactic asthma in guinea pigs
Male Hartley-strain guinea pigs weighing 305-400 g were used. These animals were sensitized by intravenous injection of 0.5 ml/animal of rabbit antiserum to egg-white albumin (PCA antibody titer 4,000). After 24 hours, the animals were housed individually in 5.3-liter plastic chambers. Using a commercial sprayer, a 5% egg-white albumin solution was sprayed in the form of an aerosol into each chamber at a rate of 0.16 ml/min for 2 minutes. Thirty minutes prior to the spraying of the egg-white albumin solution, the test compound was administered orally in varied concentrations. Each dosed group consisted of 5 animals. The prophylactic effect to anaphylaxis was expressed in terms of the ED50 value determined on the basis of the number of guinea pigs which had survived for not less than 2 hours after antigen spraying for each administration concentration of the test compound.

SMILES	IC50 [1] [µg/mL]	ED50 [2] [mg/kg]
CCCC(=O)Nc1nc(CN2CCC(OC(c3ccccc3)c3ccccc3)CC2)cs1 [Compound C, 2-Butyrylamino-4-[4-(diphenylmethoxy)piperidinomethyl]thiazole]	0.023 (≈ 0.0512 µM)	
CCOC(=O)Nc1nc(CN2CCC(OC(c3ccccc3)c3ccccc3)CC2)cs1 [Compound F, 2-Ethoxycarbonylamino-4-[4-(diphenylmethoxy)piperidinomethyl]thiazole]	0.014 (≈ 0.031 µM)	
O=C(Nc1nc(CN2CCC(OC(c3ccccc3)c3ccccc3)CC2)cs1)C1CC1 [Compound D, 2-Cyclopropylcarbonylamino-4-[4-(diphenylmethoxy)piperidinomethyl]thiazole]	0.011 (≈ 0.0246 µM)	
CS(=O)(=O)Nc1nc(CN2CCC(OC(c3ccccc3)c3ccccc3)CC2)cs1 [Compound A, 2-Mesylamino-4-[4-(diphenylmethoxy)piperidinomethyl]thiazole]		0.03

Continued, in another order:

IC50 [1] [µg/mL]	SMILES	ED50 [2] [mg/kg]
0.023 (≈ 0.0528 µM)	CCC(=O)Nc1nc(CN2CCC(OC(c3ccccc3)c3ccccc3)CC2)cs1 [Compound B, 2-Propionylamino-4-[4-(diphenylmethoxy)piperidinomethyl]thiazole]	
0.015 (≈ 0.0344 µM)	CNC(=O)Nc1nc(CN2CCC(OC(c3ccccc3)c3ccccc3)CC2)cs1 [Compound G, 2-(3-Methylureido)-4-[4-(diphenylmethoxy)piperidinomethyl]thiazole]	
0.015 (≈ 0.0332 µM)	C[C@@H](O)C(=O)Nc1nc(CN2CCC(OC(c3ccccc3)c3ccccc3)CC2)cs1 [Compound E, 2-(D-Lactoylamino)-4-[4-(diphenylmethoxy)piperidinomethyl]thiazole]	
